Experimental findings from patent publication US7759337B2, “Phthalazine compounds and methods of use” (Amgen Inc., priority 2005, dated 2010) are described below.

Where only a bound is given, the exact number is not on record here.

The test deals with production of TNF by monocytes activated with bacterial lipopolysaccharide (LPS). As to the kind of experiment: Lipopolysaccharide-activated monocyte TNF production assay. Type of test: cell-based. The conditions noted are these: Homo sapiens; whole blood monocyte assay (LPS induced TNF release). The essentials:
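Adherent human PBMC-derived monocytes preincubated 60 min with nine two-fold compound dilutions, then stimulated with E. coli K532 LPS (30 ng/mL in the added medium) for 4 h at 37 °C. Supernatant TNF measured by sandwich ELISA; IC50 is the compound concentration halving TNF production, from second-order polynomial fits.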
Take `Cc1ccc(C(N)=O)cc1-c1ccc2c(N3CCCC3=O)nncc2c1` [Example 94, 4-methyl-3-(1-(2-oxopyrrolidine-1-yl)phthalazin-6-yl)benzamide]: the half-inhibitory concentration (IC50) was ≤ 5 µM. Consider `Cc1ccc(C(=O)NC2CC2)cc1-c1ccc2c(NC(C)(C)C)nncc2c1` [Example 327, 3-[1-(tert-butylamino)phthalazin-6-yl]-N-cyclopropyl-4-methylbenzamide], for which the concentration for half-maximal inhibition (IC50) is ≤ 5 µM.

Take `Cc1ccc(C(N)=O)cc1-c1ccc2c(N3C[C@H](C)N(CC(F)(F)F)C[C@H]3C)nncc2c1` [Example 368, 3-{1-[(2R,5S)-2,5-dimethyl-4-(2,2,2-trifluoroethyl)piperazin-1-yl]phthalazin-6-yl}-4-methylbenzamide]: the IC50 was ≤ 5 µM. The value for `Cc1ccc(C(=O)NC2CC2)cc1-c1ccc2c(N3CCSCC3)nncc2c1` [Example 134, N-cyclopropyl-4-methyl-3-(1-thiomorpholin-4-ylphthalazin-6-yl)benzamide] was ≤ 5 µM.

For `Fc1ccc(Oc2ccc3c(-c4cn[nH]c4)nncc3c2)cc1` [Example 344, 6-(4-fluorophenoxy)-1-(1H-pyrazol-4-yl)phthalazine], the IC50 was ≤ 5 µM. The same measure for `Cc1ccc(C(=O)NC2CC2)cc1-c1ccc2c(N(C)C(C)C)nncc2c1` [Example 290, N-cyclopropyl-3-{1-[isopropyl(methyl)amino]phthalazin-6-yl}-4-methylbenzamide]: ≤ 5 µM; for `Cc1ccc(C(=O)NC2CC2)cc1-c1ccc2c(-c3ccc(S(C)(=O)=O)cc3C)nncc2c1` [Example 256, N-cyclopropyl-4-methyl-3-{1-[2-methyl-4-(methylsulfonyl)phenyl]phthalazin-6-yl}benzamide]: ≤ 5 µM; for `Cc1ccc(C(=O)NC2CC2)cc1-c1ccc2c(N3C[C@H](C)N(CC(F)(F)F)C[C@H]3C)nncc2c1` [Example 376, N-cyclopropyl-3-{1-[(2R,5S)-2,5-dimethyl-4-(2,2,2-trifluoroethyl)piperazin-1-yl]phthalazin-6-yl}-4-methylbenzamide]: ≤ 5 µM. On to `Cc1ccccc1-c1nncc2cc(Oc3cccc(C(=O)NC4CC4)c3)ccc12` [Example 352, N-cyclopropyl-3-{[1-(2-methylphenyl)phthalazin-6-yl]oxy}benzamide], for which the IC50 is ≤ 5 µM. As for `COc1c(C)cccc1-c1nncc2cc(-c3cc(C(=O)NC4CC4)ccc3C)ccc12` [Example 201, N-cyclopropyl-3-[1-(2-methoxy-3-methylphenyl)phthalazin-6-yl]-4-methylbenzamide], the IC50 is ≤ 5 µM. The same measure for `Cc1ccc(C(=O)NC2CC2)cc1-c1ccc2c(N3C[C@@H](C)O[C@@H](C)C3)nncc2c1` [Example 142, N-cyclopropyl-3-{1-[(2R,6S)-2,6-dimethylmorpholin-4-yl]phthalazin-6-yl}-4-methylbenzamide]: ≤ 5 µM; for `Cc1ccc(C(=O)NC2CC2)cc1-c1ccc2c(-c3ccccc3Cl)nncc2c1` [Example 170, 3-[1-(2-chlorophenyl)phthalazin-6-yl]-N-cyclopropyl-4-methylbenzamide]: ≤ 5 µM; for `COc1ncccc1-c1nncc2cc(Oc3ccc(F)cc3)ccc12` [Example 349, 6-(4-fluorophenoxy)-1-(2-methoxypyridin-3-yl)phthalazine]: ≤ 5 µM.

As to `CC[C@@H](C)Oc1nncc2cc(-c3cc(C(N)=O)ccc3C)ccc12` [Example 324, 4-methyl-3-(1-{[(1R)-1-methylpropyl]oxy}phthalazin-6-yl)benzamide], the 50% inhibitory concentration (IC50) was ≤ 5 µM.

With `Cc1ccc(C(=O)NC2CC2)cc1-c1ccc2c(N3CCOC[C@@H]3C)nncc2c1` [Example 178, N-cyclopropyl-4-methyl-3-{1-[(3S)-3-methylmorpholin-4-yl]phthalazin-6-yl}benzamide], the IC50 was ≤ 5 µM. In the case of `Cc1ccc(C(=O)NC2CC2)cc1-c1ccc2c(-c3ccc(C(F)(F)F)cc3Cl)nncc2c1` [Example 219, 3-{1-[2-chloro-4-(trifluoromethyl)phenyl]phthalazin-6-yl}-N-cyclopropyl-4-methylbenzamide], the IC50 was ≤ 5 µM.

Take `Cc1ccc(C(=O)NC2CC2)cc1-c1ccc2c(C3=CCNCC3)nncc2c1` [Example 62, N-cyclopropyl-4-methyl-3-(1-(1,2,3,6-tetrahydropyridin-4-yl)phthalazin-6-yl)benzamide]: the concentration for half-maximal inhibition (IC50) is ≤ 5 µM. The value for `CNc1noc2c(-c3ccc4c(N5CCOC[C@@H]5C)nncc4c3)c(C)ccc12` [Example 397, N,6-dimethyl-7-(1-((S)-3-methylmorpholino)phthalazin-6-yl)benzo[d]isoxazol-3-amine] was ≤ 5 µM. Regarding `Cc1ccc(C(=O)NC2CC2)cc1-c1ccc2c(-c3ccc(C(F)(F)F)cc3)nncc2c1` [Example 249, N-cyclopropyl-4-methyl-3-{1-[4-(trifluoromethyl)phenyl]phthalazin-6-yl}benzamide], the half-maximal inhibitory concentration (IC50) is ≤ 5 µM. Consider `Cc1ccc(C(=O)NC2CC2)cc1-c1ccc2c(N3C[C@@H]4C[C@H]3CO4)nncc2c1` [Example 120, N-cyclopropyl-4-methyl-3-{1-[(1S,4S)-2-oxa-5-azabicyclo[2.2.1]hept-5-yl]phthalazin-6-yl}benzamide], for which the half-maximal inhibitory concentration (IC50) was ≤ 5 µM. As for `CCSc1nncc2cc(-c3cc(C(=O)NC4CC4)ccc3C)ccc12` [Example 55, N-cyclopropyl-3-(1-(ethylthio)phthalazin-6-yl)-4-methylbenzamide], the half-inhibitory concentration (IC50) is ≤ 5 µM. Regarding `Cc1ccc(C(N)=O)cc1-c1ccc2c(N3[C@H](C)CC[C@H]3C)nncc2c1` [Example 394, 3-{1-[(2R,5R)-2,5-dimethylpyrrolidin-1-yl]phthalazin-6-yl}-4-methylbenzamide], the IC50 was ≤ 5 µM. Consider `Cc1ccc(C(=O)NC2CC2)cc1-c1ccc2c(N[C@@H](C)C(=O)OC(C)(C)C)nncc2c1` [Example 191, tert-butyl N-(6-{5-[(cyclopropylamino)carbonyl]-2-methylphenyl}phthalazin-1-yl)-L-alaninate], for which the IC50 was ≤ 5 µM. For `Cc1ccc(C(=O)NC2CC2)cc1-c1ccc2c(N3CC4CC3CN4)nncc2c1` (stereo not drawn) [Example 20, 3-(1-(2,5-diaza-bicyclo[2.2.1]heptan-2-yl)phthalazin-6-yl)-N-cyclopropyl-4-methylbenzamide], the IC50 is ≤ 5 µM. The same measure for `Cc1ccc(C(=O)NC2CC2)cc1-c1ccc2c(N3C[C@H](C)OC[C@@H]3C)nncc2c1` [Example 123, N-cyclopropyl-3-{1-[(2S,5S)-2,5-dimethylmorpholin-4-yl]phthalazin-6-yl}-4-methylbenzamide]: ≤ 5 µM; for `Cc1ccc(C(N)=O)cc1-c1ccc2c(N3CCN4C(=O)CC[C@H]4C3)nncc2c1` [Example 285, 3-{1-[(8aS)-6-oxohexahydropyrrolo[1,2-a]pyrazin-2(1H)-yl]phthalazin-6-yl}-4-methylbenzamide]: ≤ 5 µM; for `Cc1ccc(C(=O)NC2CC2)cc1-c1ccc2c(C3CCNCC3)nncc2c1` [Example 64, N-cyclopropyl-4-methyl-3-(1-(piperidin-4-yl)phthalazin-6-yl)benzamide]: ≤ 5 µM. With `O=C(NC1CC1)c1cccc(-c2ccc3c(N4CCOCC4)nncc3c2)c1` [Example 69, N-Cyclopropyl-3-(1-morpholin-4-ylphthalazin-6-yl)benzamide], the half-inhibitory concentration (IC50) is ≤ 5 µM. Take `Cc1ccc(C(=O)NC2CC2)cc1-c1ccc2c(OC(C)C)nncc2c1` [Example 168, N-cyclopropyl-3-(1-isopropoxyphthalazin-6-yl)-4-methylbenzamide]: the half-maximal inhibitory concentration (IC50) is ≤ 5 µM. With `Cc1cc(C(=O)O)sc1-c1ccc2c(N3CCOCC3)nncc2c1` [Example 47, 4-methyl-5-(1-morpholinophthalazin-6-yl)thiophene-2-carboxylic acid], the IC50 is ≤ 5 µM. As for `Cc1ccc(S(=O)(=O)NC2CC2)cc1-c1ccc2c(N3CCOCC3)nncc2c1` [Example 360, N-cyclopropyl-4-methyl-3-(1-morpholin-4-ylphthalazin-6-yl)benzenesulfonamide], the IC50 is ≤ 5 µM. In the case of `Fc1ccc(Oc2ccc3c(-c4cncnc4)nncc3c2)cc1` [Example 351, 6-(4-fluorophenoxy)-1-pyrimidin-5-ylphthalazine], the IC50 was ≤ 5 µM.

For `Cc1ccccc1-c1nncc2cc(Oc3cccc(C(=O)O)c3)ccc12` [Example 354, 3-{[1-(2-methylphenyl)phthalazin-6-yl]oxy}benzoic acid], the concentration for half-maximal inhibition (IC50) was ≤ 5 µM. For the compound `Cc1ccc(C(=O)NC2CC2)cc1-c1ccc2c(-c3ccc(CC(=O)O)cc3)nncc2c1` [Example 240, [4-(6-{5-[(cyclopropylamino)carbonyl]-2-methylphenyl}phthalazin-1-yl)phenyl]acetic acid], the half-maximal inhibitory concentration (IC50) was ≤ 5 µM. Turning to `Cc1ccc(C(N)=O)cc1-c1ccc2c(N3C[C@@H](C)OC[C@H]3C)nncc2c1` [Example 171, 3-{1-[(2R,5R)-2,5-dimethylmorpholin-4-yl]phthalazin-6-yl}-4-methylbenzamide], the 50% inhibitory concentration (IC50) is ≤ 5 µM. For the compound `COc1ncccc1-c1nncc2cc(-c3cc(C(=O)NC4CC4)ccc3C)ccc12` [Example 230, N-cyclopropyl-3-[1-(2-methoxypyridin-3-yl)phthalazin-6-yl]-4-methylbenzamide], the IC50 is ≤ 5 µM.

As to `COc1cc(Cl)ccc1-c1nncc2cc(-c3cc(C(=O)NC4CC4)ccc3C)ccc12` [Example 224, 3-[1-(4-chloro-2-methoxyphenyl)phthalazin-6-yl]-N-cyclopropyl-4-methylbenzamide], the IC50 was ≤ 5 µM.

Regarding `Cc1ccc(Oc2ccc3c(-c4ccccc4C)nncc3c2)cc1` [Example 332, 6-(4-methylphenoxy)-1-(2-methylphenyl)phthalazine], the concentration for half-maximal inhibition (IC50) is ≤ 5 µM. For the compound `Cc1ccc(C(N)=O)cc1-c1ccc2c(-c3ccc(S(C)(=O)=O)cc3C)nncc2c1` [Example 96, 4-methyl-3-(1-(2-methyl-4-(methylsulfonyl)phenyl)phthalazin-6-yl)benzamide], the IC50 is ≤ 5 µM.

What is called IC50 is the concentration needed to halve the response being measured. Lower therefore signals greater potency.
